Source: patent publication US12325688B2, “Gingerenone A prodrugs as sensotherapeutics and methods of use” (The U.S.A., as Represented by the Secretary, Department of …, priority 2022, dated 2025)
“Also recorded” adds a separate entry of the source.

Columns and labels:
Assay type in all cases: cell-based, human
[1] = system: IR-induced senescent WI-38 fibroblasts; assay: MTT cell viability assay, senescent cells; conditions: for senolytic activity (selective decrease of viability of senescent cells): components at 100 μM, 6-shogaol 3.6 μM, 8-shogaol 33 μM, 6-gingerol 20 μM; for senescent cell viability: D+Q 250 nM dasatinib + 10 μM quercetin, gingerenone A 20 μM, 6-shogaol 72.4 nM
Method: Cell culture and treatments: WI-38 human diploid fibroblasts (HDFs) were cultured in Dulbecco's modified Eagle's medium (DMEM) supplemented with 10% heat-inactivated fetal bovine serum (FBS), penicillin and streptomycin, and non-essential amino acids at 37° C. in a 5% CO2 incubator. HDFs were rendered senescent by exposure to 10 Gy of ionizing radiation (IR) and then cultured for an additional ten days. Proliferating and senescent WI-38 cells were seeded in triplicate overnight at 2×10^5 cells/well (in 6 well plates) to achieve ˜-60% confluence by the next day. Cells were then treated with the extracts for times indicated. […]
MTT cell viability: The MTT assay (BioVision Milpitas, CA) was carried out following the manufacturer's protocol. Briefly, the media was gently removed from each well and 50 μl of serum-free medium+50 μl of Solution A were added to each well. The plates were incubated at 37° C. for MTT reduction into formazan for 3 h. Next, 150 μl Solution B was added to each well and the plate was covered with foil and shaken at 600 rpm for 15 min. The absorbance was measured at 590 nm using Enspire, Perkin Elmer Multimode plate reader. […]
WI-38 fibroblasts were rendered senescent by exposure to ionizing radiation (IR, 10 Gy) and cultured for an additional 10 days. […] Data represent the means and standard error from three biological replicates. The major components of ginger extract, namely 6-gingerol, 8-gingerol, 10-gingerol, 6-shogaol, 8-shogaol, gingerenone A, and zingerone, were screened for their ability to selectively decrease cell viability of senescent cells using the MTT assay (FIG. 10A).

[2] = system: proliferating WI-38 fibroblasts; assay: MTT cell viability assay, proliferating cells; conditions: 48 h; D+Q 250 nM dasatinib + 10 μM quercetin, gingerenone A 20 μM, 6-shogaol 72.4 nM
Method: Cell culture and treatments: WI-38 human diploid fibroblasts (HDFs) were cultured in Dulbecco's modified Eagle's medium (DMEM) supplemented with 10% heat-inactivated fetal bovine serum (FBS), penicillin and streptomycin, and non-essential amino acids at 37° C. in a 5% CO2 incubator. HDFs were rendered senescent by exposure to 10 Gy of ionizing radiation (IR) and then cultured for an additional ten days. Proliferating and senescent WI-38 cells were seeded in triplicate overnight at 2×10^5 cells/well (in 6 well plates) to achieve ˜-60% confluence by the next day. Cells were then treated with the extracts for times indicated.
In 24-well plates, cells were treated with multiple dilutions (1:200 and 1:500) of Harpagophytum procumbens (Devil's Claw) (herb to menstruum ratio, 1:3), Uncaria tomentosa (Cat's Claw) (herb to menstruum ratio, 1:3), Zingiber officinale Rosc. […]
MTT cell viability: The MTT assay (BioVision Milpitas, CA) was carried out following the manufacturer's protocol. […] The absorbance was measured at 590 nm using Enspire, Perkin Elmer Multimode plate reader.
Four plant extracts were screened for senolytic activity, including extracts from Harpagophytum procumbens (Devil's Claw), Uncaria tomentosa (Cat's Claw), Zingiber officinale Rosc. […] In FIG. 8B, the impact on ginger extract on proliferating and senescent cells on cell survival was assessed by the MTT cell viability assay.

[3] = system: senescent WI-38 fibroblasts; assay: Secreted SASP cytokines and chemokines (ELISA, multiplex, V-PLEX)
Method: Secreted protein analysis—ELISA, Luminex Multiplex and V-PLEX: Media was collected at the earliest timepoint (24 h after treatments) to avoid cell death that could interfere with the assay. The media was centrifuged at 1000×g for 5 min to remove debris. The secretion of IL-6 was measured by the Quantikine ELISA Kit (R&D systems) and the expression of pro-inflammatory cytokines and chemokines [IL-6, TNFα, CCL2 (MCP-1), IL-8, IFNβ] was also assessed by multiplex assays (customized Luminex plate, R&D) according to the manufacturer's instructions. The V-PLEX Plus Proinflammatory Panel 1 Human Kit and the Chemokine Panel 1 preparation and detection were carried out following the manufacturer's protocol (Mesoscale Diagnostics) using >80% confluency of proliferating or senescent cells on 24-well plates. Briefly, different concentrations of standards and samples were added to the plates, and they were incubated for 2 h on a microplate shaker. The plates were washed, and the corresponding detection antibody mixture was added to each well and incubated for 1 h with shaking. The plates were washed twice then Read buffer was added to each well. The plates were read on the MESO Quickplex SQ 120 (MSD, Rockville, MD) and protein concentrations were determined using MSD Discovery workbench 4.0. The effects of gingerenone A, 6-shogaol and D+Q on cytokines and chemokines that are known to be part of the senescence-associated secretory phenotype (SASP) were tested. WI-38 fibroblasts were rendered senescent by exposure to ionizing radiation (IR, 10 Gy) and cultured for an additional 10 days. Cells were then treated with gingerenone A (20 μM) and 6-shogaol (72.4 nM) and incubated for 24 h. CCL-2 (MCP-1) and IL-10 were measured using the Bio-plex (Multiplex); IL6 was measured using Quantikine IL-6 (R&D) (FIG. 12A). Data were normalized to cell number/total protein content. Data in graphs represent the means and standard error from three biological replicates. […] Ratios of cleaved pro-caspase 3 to total caspase 3, normalized to ACTB levels, are shown as relative to control proliferating cells. Cytokines (FIG. 13A) and chemokines (FIG. 13B) were measured using the V-plex panel (MSD) after treatment for 24 h with the indicated drugs. Relative secretion was measured as pg/ml vs control normalized on TE. Data in the graphs represent the means and standard error from three biological replicates.

[4] = system: proliferating and senescent WI-38 fibroblasts; assay: Western blot of apoptotic pathway proteins; conditions: 48 h; for expression of anti-apoptotic protein Bcl-XL / levels of pro-apoptotic protein cleaved caspase-3: senescent cells
Method: Protein analysis: Cells were lysed in RIPA lysis buffer (Pierce, ThermoFisher) containing protease and phosphatase inhibitors (Roche) and incubated on ice for 10 min. The lysates were then sonicated for 5 min and centrifuged for 10 min at 4° C. to remove the insoluble fraction. The remaining supernatant was the whole-cell lysate. Lysates were separated by SDS-polyacrylamide gel electrophoresis (SDS-PAGE) and transferred onto nitrocellulose membranes (Biorad). Incubations with primary antibodies recognizing p21, p53, Beta-Actin (ACTB) (Santa Cruz Biotechnology), as well as caspase-3 (Abcam) and Bcl-XL (Cell Signaling) were followed by incubations with the appropriate secondary antibodies conjugated with horseradish peroxidase (GE Healthcare). Signals were developed using Enhanced Chemiluminescence (ECL) and acquired by using the ChemiDoc MP Imaging System (BioRad).
The effects of gingerenone A, 6-shogaol and D+Q on cytokines and chemokines that are known to be part of the senescence-associated secretory phenotype (SASP) were tested. WI-38 fibroblasts were rendered senescent by exposure to ionizing radiation (IR, 10 Gy) and cultured for an additional 10 days. Cells were then treated with gingerenone A (20 μM) and 6-shogaol (72.4 nM) and incubated for 24 h. CCL-2 (MCP-1) and IL-10 were measured using the Bio-plex (Multiplex); IL6 was measured using Quantikine IL-6 (R&D) (FIG. 12A). Data were normalized to cell number/total protein content. Data in graphs represent the means and standard error from three biological replicates. […] Ratios of cleaved pro-caspase 3 to total caspase 3, normalized to ACTB levels, are shown as relative to control proliferating cells. Cytokines (FIG. 13A) and chemokines (FIG. 13B) were measured using the V-plex panel (MSD) after treatment for 24 h with the indicated drugs. Relative secretion was measured as pg/ml vs control normalized on TE. Data in the graphs represent the means and standard error from three biological replicates.
To determine whether gingerenone A and 6-shogaol might influence the apoptotic pathway, their effect on the levels of cleaved caspase-3 (pro-apoptotic marker), and Bcl-XL (anti-apoptotic protein) (FIG. 12B) was tested. […] However, D+Q, gingerenone A, and 6-shogaol all reduced the expression of the anti-apoptotic protein Bcl-XL in senescent cells (FIG. 12B, right).

In the case of `CCCCCCC/C=C/C(=O)CCc1ccc(O)c(OC)c1` [8-shogaol], the “senolytic activity (selective decrease of viability of senescent cells)” value ([1]; 72 h) is reported as “only 6-shogaol and gingerenone A displayed senolytic activity”.

In the case of `COc1cc(CCC(C)=O)ccc1O` [zingerone], the “senolytic activity (selective decrease of viability of senescent cells)” value ([1]; 72 h) is reported as “only 6-shogaol and gingerenone A displayed senolytic activity”.

For `CCCCCCC[C@H](O)CC(=O)CCc1ccc(O)c(OC)c1` [8-gingerol], the “senolytic activity (selective decrease of viability of senescent cells)” value ([1]; 72 h) was “only 6-shogaol and gingerenone A displayed senolytic activity”.

With `CCCCC[C@H](O)CC(=O)CCc1ccc(O)c(OC)c1` [6-gingerol] the “senolytic activity (selective decrease of viability of senescent cells)” value ([1]; 72 h) was “only 6-shogaol and gingerenone A displayed senolytic activity”.

For `CCCCCCCCC[C@H](O)CC(=O)CCc1ccc(O)c(OC)c1` [10-gingerol], the “senolytic activity (selective decrease of viability of senescent cells)” value ([1]; 72 h) was “only 6-shogaol and gingerenone A displayed senolytic activity”.

In the case of `CCCCC/C=C/C(=O)CCc1ccc(O)c(OC)c1` [6-shogaol], the senescent cell viability ([1]; 48 h) is reported as “moderate degree of cell death”, the “senolytic activity (selective decrease of viability of senescent cells)” value ([1]; 72 h) is reported as “displayed senolytic activity” and the “effect on proliferating (non-irradiated) cells” value [2] is reported as “significant increase”. The “changes in any of the cytokines and chemokines measured” value ([3]; 24 h, 72.4 nM) was “did not induce major changes”, the “expression of anti-apoptotic protein Bcl-XL” value [4] was “reduced” and the “levels of pro-apoptotic protein cleaved caspase-3” value [4] was “increase”.

In the case of `COc1cc(CC/C=C/C(=O)CCc2ccc(O)c(OC)c2)ccc1O` [gingerenone A, Gingerenone A], the “senescent cell viability relative to proliferating cells” value ([1]; 20 μM, 48 h) is reported as “significant decrease; also recorded: significantly decreased”, the “selectivity for senescent over proliferating cells” value ([1]; 48 h, 20 μM, compared to D+Q) is reported as “higher selectivity compared to D+Q” and the senescent cell viability ([1]; 48 h) is reported as “significantly decreased”. For the same compound, the “senolytic activity (selective decrease of viability of senescent cells)” value ([1]; 72 h) was “displayed senolytic activity”, the IC50 ([1]; Homo sapiens, WI-38, light or radiation study, dose response 2.5-100 μM, 72 h, 10 days post-irradiation) was 19.6 ± 2.1 µM and the “effect on proliferating (non-irradiated) cells” value [2] was “did not show any significant effect”. For the same compound, the “level of anti-inflammatory cytokine IL-13” value ([3]; 24 h, FIG. 13A) was “increased”, the “level of pro-inflammatory cytokine IL-8” value ([3]; 24 h, FIG. 13A) was “increased” and the “level of IL-10” value ([3]; 24 h, V-plex, FIG. 13A) was “unchanged”. The “level of IL-10, listed with IL-8 as pro-inflammatory cytokine” value ([3]; 24 h, V-plex, FIG. 13A) was “increased”, the “secreted level of interferon γ-induced protein 10 (IP-10)” value ([3]; 24 h, V-plex, FIG. 13B) was “reduced” and the “level of anti-inflammatory cytokine IL-10” value ([3]; 24 h, multiplex ELISA (Bio-plex), FIG. 12A) was “increase”. The “secreted level of CCL2 (MCP-1)” value ([3]; 24 h, gingerenone A 20 μM, D+Q) was “reduced”, the “secreted level of IL-6” value ([3]; 24 h, gingerenone A 20 μM, D+Q) was “reduced” and the “secretion of pro-inflammatory SASP cytokine IL-1B” value ([3]; senescent cells) was “increase”. For the same compound, the p53 levels ([4]; proliferating and senescent cells) was “did not increase”, the “expression of anti-apoptotic protein Bcl-XL” value [4] was “reduced” and the “levels of pro-apoptotic protein cleaved caspase-3” value [4] was “increase”.
